pIC50: −log10 of the molar value.

The pIC50 is the IC50 on a negative log10 scale, so that one unit is a factor of ten.

EGFR, sequence (P00533 25-1210): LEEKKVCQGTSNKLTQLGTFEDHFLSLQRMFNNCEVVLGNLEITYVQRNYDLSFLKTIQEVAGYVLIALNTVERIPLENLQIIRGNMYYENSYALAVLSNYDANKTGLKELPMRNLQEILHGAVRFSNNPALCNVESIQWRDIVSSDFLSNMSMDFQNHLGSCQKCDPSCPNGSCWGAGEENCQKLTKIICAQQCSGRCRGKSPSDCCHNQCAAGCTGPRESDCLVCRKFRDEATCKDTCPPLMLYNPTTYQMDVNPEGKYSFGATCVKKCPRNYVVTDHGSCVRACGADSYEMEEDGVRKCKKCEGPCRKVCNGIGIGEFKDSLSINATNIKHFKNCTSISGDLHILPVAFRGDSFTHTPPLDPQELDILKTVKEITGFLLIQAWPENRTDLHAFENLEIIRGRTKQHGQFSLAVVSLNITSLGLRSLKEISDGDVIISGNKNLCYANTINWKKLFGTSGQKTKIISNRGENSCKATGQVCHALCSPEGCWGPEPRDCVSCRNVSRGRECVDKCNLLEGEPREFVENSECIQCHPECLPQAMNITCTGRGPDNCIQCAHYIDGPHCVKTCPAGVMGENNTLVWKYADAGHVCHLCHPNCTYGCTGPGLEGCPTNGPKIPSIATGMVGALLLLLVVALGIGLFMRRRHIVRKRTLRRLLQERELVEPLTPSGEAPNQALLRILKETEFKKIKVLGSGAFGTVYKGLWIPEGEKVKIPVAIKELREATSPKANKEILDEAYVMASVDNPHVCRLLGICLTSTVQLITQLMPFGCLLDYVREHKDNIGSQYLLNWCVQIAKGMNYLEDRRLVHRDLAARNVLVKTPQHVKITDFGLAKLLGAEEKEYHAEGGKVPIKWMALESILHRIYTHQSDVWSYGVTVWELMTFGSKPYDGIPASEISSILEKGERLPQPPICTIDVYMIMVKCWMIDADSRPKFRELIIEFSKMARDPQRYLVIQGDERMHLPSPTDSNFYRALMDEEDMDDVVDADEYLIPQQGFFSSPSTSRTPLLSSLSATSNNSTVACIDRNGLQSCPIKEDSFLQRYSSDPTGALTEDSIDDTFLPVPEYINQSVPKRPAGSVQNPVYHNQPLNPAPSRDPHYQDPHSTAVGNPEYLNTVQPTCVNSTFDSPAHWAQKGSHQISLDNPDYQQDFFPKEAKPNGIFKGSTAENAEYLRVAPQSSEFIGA

This test concerns the target EGFR (Homo sapiens, UniProt P00533). Briefly: EGFR assay (cellular ELISA, NIH 3T3/C7 cells). It is filed as cell-based. The arrangement: expressed in transfected cells; host or cells: NIH 3T3/C7. As to conditions: read-out: cell EGF IC50. On the procedure: EGF Receptor kinase activity in cells genetically engineered to express human EGF-R can be measured as described below:
Materials and Reagents. • a. […] 05-101 (UBI) (a monoclonal antibody recognizing an EGFR extracellular domain). • c. Anti-phosphotyosine antibody (anti-Ptyr) (polyclonal). • d. Detection antibody: Goat anti-rabbit IgG horse radish peroxidase conjugate, TAGO, Inc. Burlingame, Calif. • e. TBST buffer:
• Keep solution in dark at 4° C. until used. • h. Stock reagents of:
Pre-coat ELISA Plate • 1. […] Coated plates are good for up to 10 days when stored at 4° C. • 2. On day-of use, remove coating buffer and replace with blocking buffer (5% Carnation Instant NonFat Dry Milk in PBS). Incubate the plate, shaking, at room temperature (about 23° C. to 25° C.) for 30 minutes. Just prior to use, remove blocking buffer and wash plate 4 times with TBST buffer.
Seeding Cells • 1. […] Choose dishes having 80-90% confluence for the experiment. Trypsinize cells and stop reaction by adding 10% CS DMEM medium. Suspend cells in DMEM medium (10% CS DMEM medium) and centrifuge once at 1000 rpm at room temperature for 5 minutes. • 3. Resuspend cells in seeding medium (DMEM, 0.5% bovine serum), and count the cells using trypan blue. Viability above 90% is acceptable. Seed cells in DMEM medium (0.5% bovine serum) at a density of 10,000 cells per well, 100 μl per well, in a 96 well microtiter plate. Incubate seeded cells in 5% CO2 at 37° C. for about 40 hours.
Assay Procedures. • 1. Check seeded cells for contamination using an inverted microscope. Dilute test compounds stock (10 mg/ml in DMSO) 1:10 in DMEM medium, then transfer 5 μl to a test well for a test compounds drug dilution of 1:200 and a final DMSO concentration of 1%. Control wells receive DMSO alone. Incubate in 5% CO2 at 37° C. for one hour. • 2. Prepare EGF ligand: dilute stock EGF in DMEM so that upon transfer of 10 μl dilute EGF (1:12 dilution), 25 nM final concentration is attained. • 3. Prepare fresh 10 ml HNTG* sufficient for 100 μl per well wherein HNTG* comprises: HNTG stock (2.0 ml), milli-Q H2O (7.3 ml), EDTA, 100 mM, pH 7.0 (0.5 ml), Na3VO4 0.5 M (0.1 ml) and Na4(P2O7), 0.2 M (0.1 ml). • 4. Place on ice. • 5. After two hours incubation with drug, add prepared EGF ligand to cells, 10 μl per well, to yield a final concentration of 25 nM. Control wells receive DMEM alone. Incubate, shaking, at room temperature, for 5 minutes. • 6. Remove test compound, EGF, and DMEM. Wash cells twice with PBS. Transfer HNTG* to cells, 100 μl per well. Place on ice for 5 minutes. Meanwhile, remove blocking buffer from other ELISA plate and wash with TBST as described above. • 7. With a pipette tip securely fitted to a micropipettor, scrape cells from plate and homogenize cell material by repeatedly aspirating and dispensing the HNTG* lysis buffer. Transfer lysate to a coated, blocked, and washed ELISA plate. Incubate shaking at room temperature for one hour. • 8. Remove lysate and wash 4 times with TBST. Transfer freshly diluted anti-Ptyr antibody to ELISA plate at 100 μl per well. Incubate shaking at room temperature for 30 minutes in the presence of the anti-Ptyr antiserum (1:3000 dilution in TBST). • 9. Remove the anti-Ptyr antibody and wash 4 times with TBST. Transfer the freshly diluted TAGO 30 anti-rabbit IgG antibody to the ELISA plate at 100 μl per well. Incubate shaking at room temperature for 30 minutes (anti-rabbit IgG antibody: 1:3000 dilution in TBST). • 10. Remove detection antibody and wash 4 times with TBST. Transfer freshly prepared ABTS/H2O2 solution to ELISA plate, 100 μl per well. Incubate at room temperature for 20 minutes. ABTS/H2O2 solution: 1.2 μl 30% H2O2 in 10 ml ABTS stock. • 11. Stop reaction by adding 50 μl 5N H2SO4 (optional), and determine O.D. at 410 nm. • 12. The maximal phosphotyrosine signal is determined by subtracting the value of the negative controls from the positive controls. […]
In general terms: ELISA stands for enzyme-linked immunosorbent assay.
As for `CC1(C)CCc2cc(C=C3C(=O)Nc4ccc(Br)cc43)ccc2O1` (racemic) [Example 34, 5-Bromo-3-(2,2-dimethylchroman-6-ylmethylene)-1,3-dihydroindol-2-one], the pIC50 is 4.42.

As for `COc1c(C(C)C)cc(/C=C2/C(=O)Nc3cc(F)ccc32)cc1C(C)C` [Example 22, 3-(3,5-Diisopropyl-4-methoxybenzylidene)-6-fluoro-1,3-dihydroindol-2-one], the pIC50 was less than 4.00.

As for `O=C1Nc2ccccc2/C1=C\c1ccc2c(c1)CCO2` [Example 66, 3-(2,3-Dihydrobenzofuran-5-ylmethylene)-1,3-dihydroindol-2-one], the pIC50 is less than 4.00.

Consider `CC(=O)Nc1ccc2c(c1)NC(=O)/C2=C/c1ccc(OCCN2CCOCC2)c(C(C)(C)C)c1` [Example 55, N-{3-[3-tert-Butyl-4-(2-morpholin-4-ylethoxy)-benzylidene]-2-oxo-2,3-dihydro-1H-indol-6-yl}-acetamide], for which the pIC50 was 4.11.

With `COc1ccc(/C=C2/C(=O)Nc3ccc(F)cc32)cc1-c1ccccc1` [Example 37, 5-Fluoro-3-(6-methoxybiphenyl-3-ylmethylene)-1,3-dihydroindol-2-one], the pIC50 is less than 4.00.

In the case of `CCOc1cccc(-c2cc(OC)c(OC)cc2/C=C2/C(=O)Nc3ccccc32)c1` [Example 58, 3-(3′-Ethoxy-4,5-dimethoxybiphenyl-2-ylmethylene)-1,3-dihydroindol-2-one], the pIC50 was less than 4.00.

Regarding `COc1ccccc1-c1ccc2c(c1)NC(=O)/C2=C\c1[nH]c(C)cc1CCC(=O)O` [Example 109, 3-{2-[6-(2-Methoxyphenyl)-2-oxo-1,2-dihydroindol-3-ylidenemethyl]-5-methyl-1H-pyrrol-3-yl}-propionic acid], the pIC50 is less than 4.00.

Consider `CC1(C)CCc2cc(/C=C3/C(=O)Nc4ccc(F)cc43)ccc2O1` [Example 23, 3-(2,2-Dimethylchroman-6-ylmethylene)-5-fluoro-1,3-dihydroindol-2-one], for which the pIC50 was 4.42.

Turning to `Cc1cccc2c1/C(=C/c1ccc3c(c1)CCO3)C(=O)N2` [Example 69, 3-(2,3-Dihydrobenzofuran-5-ylmethylene)-4-methyl-1,3-dihydroindol-2-one], the pIC50 was less than 4.00.

Take `COc1c(C(C)C)cc(/C=C2/C(=O)Nc3ccc(C)cc32)cc1C(C)C` [Example 19, 3-(3,5-Diisopropyl-4-methoxybenzylidene)-5-methyl-1,3-dihydroindol-2-one]: the pIC50 was 4.46.

For the compound `COc1ccc(/C=C2/C(=O)Nc3ccccc32)cc1C(C)C` [Example 7, 3-(3-Isopropyl-4-methoxybenzylidene)-1,3-dihydroindol-2-one], the pIC50 was 4.39.

For the compound `COc1c(C)cc(/C=C2/C(=O)Nc3ccc(Cl)cc32)cc1C` [Example 21, 5-Chloro-3-(4-methoxy-3,5-dimethylbenzylidene)-1,3-dihydroindol-2-one], the pIC50 is 4.73.

For the compound `COc1c(C(C)C)cc(/C=C2/C(=O)Nc3cc(O)ccc32)cc1C(C)C` [Example 4, 3-(3,5-Diisopropyl-4-methoxybenzylidene)-6-hydroxy-1,3-dihydroindol-2-one], the pIC50 is 4.70.

As to `O=C1Nc2ccc(F)cc2/C1=C\c1ccc2c(c1)CCO2` [Example 42, 3-(2,3-Dihydrobenzofuran-5-ylmethylene)-5-fluoro-1,3-dihydroindol-2-one], the pIC50 is less than 4.00.

As to `COc1ccc(/C=C2\C(=O)Nc3cccc(C)c32)cc1C1CCCC1` [Example 48, 3-(3-Cyclopentyl-4-methoxybenzylidene)-4-methyl-1,3-dihydroindol-2-one], the pIC50 was less than 4.00.

`CCOc1cccc(-c2cc(C=C3C(=O)Nc4ccccc43)ccc2OC)c1` [Example 46, 3-(3′-Ethoxy-6-methoxybiphenyl-3-ylmethylene)-1,3-dihydroindol-2-one]: the pIC50 was less than 4.00.

With `COc1c(C(C)C)cc(/C=C2/C(=O)Nc3ccc(N)cc32)cc1C(C)C` [Example 20, 5-Amino-3-(3,5-diisopropyl-4-methoxy-benzylidene)-1,3-dihydroindol-2-one], the pIC50 was 4.11.

For `COc1ccc(/C=C2/C(=O)Nc3ncccc32)cc1C1CCCC1` [Example 47, 3-(3-Cyclopentyl-4-methoxybenzylidene)-1,3-dihydropyrrolo[2,3-b]pyridin-2-one], the pIC50 is less than 4.00.

As to `O=C1Nc2ccc(Br)cc2/C1=C/c1cc2ccccc2[nH]1` [Example 165, 5-Bromo-3-(1H-indol-2-ylmethylene)-1,3-dihydro-indol-2-one], the pIC50 was less than 4.00.

Consider `COc1ccc(/C=C2/C(=O)Nc3ncccc32)cc1C(C)C` [Example 70, 3-(3-Isopropyl-4-methoxybenzylidene)-1,3-dihydropyrrolo[2,3-b]pyridine-2-one], for which the pIC50 is less than 4.00.

The values above are taken from patent US6855730B2, “3-methylidenyl-2-indolinone modulators of protein kinase” (Sugen, Inc., priority 1998, dated 2005).
